# Experimental data taken from patent US8093278B2, “Substituted indoles” (AstraZeneca AB, priority 2002, dated 2012).
# Counter-ions that a name gives are not always drawn.
# Legend:
# rhCRTh2 = biological target: T1, rhCRTh2 (Homo sapiens, UniProt Q9Y5Y4); test: Ligand Binding Assay ([3H]PGD2 SPA, HEK cell membranes); details: [3H]PGD2 displacement, HEK membranes expressing rhCRTh2/Gα16, SPA beads, 2 hours room temperature
# T1 construct: expressed in transfected cells; host or cells: HEK cells (membrane preparation)
# T1 sequence (Q9Y5Y4 1-395): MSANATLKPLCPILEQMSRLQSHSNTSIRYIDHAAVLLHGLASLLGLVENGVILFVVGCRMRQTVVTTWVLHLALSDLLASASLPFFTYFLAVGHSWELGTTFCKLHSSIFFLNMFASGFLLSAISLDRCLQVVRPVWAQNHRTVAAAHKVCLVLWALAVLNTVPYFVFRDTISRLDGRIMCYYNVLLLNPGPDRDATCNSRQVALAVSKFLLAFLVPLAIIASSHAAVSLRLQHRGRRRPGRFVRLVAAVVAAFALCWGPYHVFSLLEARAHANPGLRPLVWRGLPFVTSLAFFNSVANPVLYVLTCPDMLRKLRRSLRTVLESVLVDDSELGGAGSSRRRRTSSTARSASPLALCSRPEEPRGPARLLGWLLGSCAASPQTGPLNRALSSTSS
# Method: • 1) Gassmann, Berge, T. J., Gilbert, D. P., Berkeley, W. C., JACS, 96, 5495-5508, (1974). Pharmacological Data Ligand Binding Assay
# [^3H]PGD2 was purchased from Perkin Elmer Life Sciences with a specific activity of 100-210 Ci/mmol. All other chemicals were of analytical grade.
# HEK cells expressing rhCRTh2/Gα16 were routinely maintained in DMEM containing 10% Foetal Bovine Serum (HyClone), 1 mg/ml geneticin, 2 mM L-glutamine and 1% non-essential amino acids. For the preparation of membranes, the adherent transfected HEK cells were grown to confluence in two layer tissue culture factories (Fisher, catalogue number TKT-170-070E). Maximal levels of receptor expression were induced by addition of […] sodium butyrate for the last 18 hours of culture. The adherent cells were washed once with phosphate buffered saline (PBS, 50 ml per cell factory) and detached by the addition of 50 ml per cell factory of ice-cold membrane homogenisation buffer [20 mM HEPES (pH 7.4), 0.1 mM dithiothreitol, 1 mM EDTA, 0.1 mM phenyl methyl sulphonyl fluoride and 100 μg/ml bacitracin]. […] The final pellet was re-suspended in 4 ml of membrane homogenisation buffer per cell factory used and the protein content determined. […]
# All assays were performed in Corning clear bottomed, white 96-well NBS plates (Fisher). […] (The optimum coating concentrations were determined for each batch of membranes) The beads were pelleted by centrifugation (800×g for 7 minutes at 4° C.), washed once with assay buffer (50 mM HEPES pH 7.4 containing 5 mM magnesium chloride) and finally re-suspended in assay buffer at a bead concentration of 10 mg/ml.
# Each assay contained 20 μl of 6.25 nM [^3H]PGD2, 20 μl membrane saturated SPA beads both in assay buffer and 10 μl of compound solution or 13,14-dihydro-15-keto prostaglandin D2 (DK-PGD2, for determination of non-specific binding, Cayman chemical company). […] The assay plate was incubated at room temperature for 2 hours and counted on a Wallac Microbeta liquid scintillation counter (1 minute per well).
IC50 (rhCRTh2),melting point,Compound
20 nM,–,"Cc1ccc2c(c1)c(-c1ccnc3ccccc13)c(C)n2CC(=O)O [Example 14, 2,5-dimethyl-3-(4-quinolinyl)-1H-indole-1-acetic acid, sodium salt]"
53.7 nM,–,"O=C(O)Cn1c(CO)c(-c2ccnc3cc(Cl)ccc23)c2cc(Cl)ccc21 [Example 55, 5-Chloro-3-(7-chloro-4-quinolinyl)-2-(hydroxymethyl)-1H-indole-1-acetic acid]"
–,195 to 198 °C,"Cc1c(-c2ccnc3cc(Cl)ccc23)c2cc(NS(C)(=O)=O)ccc2n1CC(=O)O [Example 46, 3-(7-Chloro-4-quinolinyl)-2-methyl-5-[(methylsulfonyl)amino]-1H-indole-1-acetic acid]"
7.08 nM,–,"Cc1c(-c2nsc3ccccc23)c2cc(F)ccc2n1CC(=O)O [Example 36, 3-(1,2-benzisothiazol-3-yl)-5-fluoro-2-methyl-1H-indole-1-acetic acid]"
